# Where a name gives a salt, the structure may show the parent alone.
# Columns and labels:
# [1] = tested on: Pseudomonas stutzeri strain LH4:15 (ATCC PTA-8823); assay: Aerobic growth response (turbidity) to varying concentrations of industrial preservatives; format: cell-based; settings: for concentration that must be reached before inhibition of microbial growth ends: stated 'as illustrated in Example 2';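 for growth (turbidity): single plus means slight turbidity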
# Protocol: (§1) Typically cells were grown at a temperature in the range of about 25° C. to about 40° C. in an appropriate medium.
# Pseudomonas stutzeri strain LH4:15 (ATCC PTA-8823) was grown as outlined in Example 1. Various preservatives commonly used in the food, cosmetic, and water treatment industries were tested for their inhibitory effect at various concentrations (Table 2). Growth was monitored visually and positive growth was indicated by moderate to heavy turbidity.
# [2] = tested on: Pseudomonas stutzeri strain LH4:15 (ATCC PTA-8823); assay: Anaerobic growth and survival: biocidal versus biostatic inhibition; format: cell-based; settings: for change in Log cell number: day 0 vs day 7, anaerobic; for Final anaerobic vial OD: starting OD600 = 0.05
# Protocol: In this invention, the anaerobic growth and survival was tested in 20 ml crimp-capped anaerobic vials, using a complete nutrient medium of the following composition: Na2HPO4.7H2O, 1.4 g/L, KH2PO4, 0.69 g/L, NH4Cl, 0.5 g/L, MgSO4.7H2O, 0.1/L g, SL-10 trace metals, 10 ml, NaCl, 7.5 g/L, NaHCO3, 7.2 g/L, sodium nitrate, 12 g/L, Na lactate, 7 g/L, yeast extract, 10 mg/L, pH 7.3-7.8.
# The anaerobic growth and survival was tested as outlined above. […] Vials were inoculated using an overnight aerobic culture of Pseudomonas stutzeri strain LH4:15 (ATCC PTA-8823) in Luria Bertani medium (LB, Mediatech Inc., Herndon, Va.,) at a final OD600 of 0.05. Within 2 hours of inoculation, serial dilutions from each treatment vial were made into aerobic LB medium to determine the cell numbers at Day 0. After approximately 24 hours cell numbers were estimated by noting the highest positive dilution based on the presence or absence of turbidity in dilutions of 10^−1 to 10^−11 in the serial dilution plates. Cell numbers on Day 0 and Day 7 were measured to obtain a survival estimate during inhibitor exposure.
# [3] = Partition coefficient in an oil/water system; format: physicochemical
# Protocol: In this Example a contribution to inhibitor dissipation made by adsorption of the inhibitor into the oil phase may be observed. For example, nitrate as a nitrogen source and electron acceptor and glucose as a growth substrate, each at 25 g/L concentration, may be added in combination to the injection water stream. In addition, benzalkonium chloride may be added to the inhibited nutrient composition. The composition may be pumped into the oil well formation for 5 hours. The industrial biocide inhibits growth of microbial populations in the oil well formation independent of the added nutrient concentrations. As illustrated in Example 2 until the benzalkonium chloride reaches a concentration of <0.1 g/L, microbial growth is inhibited. Using physical parameters common in oil well formations found in unconsolidated sandstone regions of the North Slope, dispersion modeling determines that it will take approximately fourteen days for flow dispersion to dilute benzalkonium chloride to approximately <0.1 g/L. In addition, it may be empirically determined, through laboratory experimentation, that the partition coefficient for benzalkonium chloride in an oil/water system is approximately 10. Therefore, rather than adding benzalkonium chloride at 2% concentration based on dispersion modeling, it is added at a 10% initial concentration to counter act losses due to adsorption. […]
# [4] = tested on: native anaerobic population in the injection water from the North Slope of Alaska; assay: Growth and nitrate+nitrite consumption of native populations in injection water; format: cell-based
# Protocol: (§2) Injection water was amended with sodium nitrate as electron acceptor plus a growth substrates. In addition 0.2% ethyl formate was added to the inhibited treatment. The injection water was incubated anaerobically at approximately 25° C. under an atmosphere of 80% nitrogen and 20% carbon dioxide, reflecting typical growth conditions in the North Slope oil well formations. Growth of the native populations, nitrate concentrations and ethyl formate concentrations were monitored over two weeks.
# [5] = Decline (hydrolysis) of ethyl formate in injection water; format: physicochemical; settings: in about four days, anaerobic, approximately 25° C., 0.2% added
# Protocol: The growth delay allows deeper penetration into the oil well formation and more widespread MEOR activation.
# as §2
# [6] = tested on: Pseudomonas stutzeri strain LH4:15, ATCC PTA-8823; assay: Aerobic growth response (turbidity) to varying concentrations of potential microbial nutrients; format: cell-based; note: key: − = no turbidity; + = slight turbidity; ++ = moderate to heavy turbidity
# Protocol: as §1
# Additional potential microbial nutrients were added at various concentrations as outlined in Table 1. Growth was monitored visually with positive growth indicated by moderate to heavy turbidity.
molecule,measurement,setting,value
Benzalkonium chloride,growth (turbidity),[1]; 0.0001 g/L,++
same,growth (turbidity),[1]; 0.001 g/L,++
same,growth (turbidity),[1]; 0.005 g/L,++
same,growth (turbidity),[1]; 0.01 g/L,++
same,growth (turbidity),[1]; 0.1 g/L,−
same,growth (turbidity),[1]; 0.5 g/L,−
same,growth (turbidity),[1]; 1 g/L,−
same,concentration that must be reached before inhibition of microbial growth ends,[1],< 0.1 g/L
same,change in Log cell number,[2]; 0.01 g/L,0
same,Final anaerobic vial OD,[2]; 0.01 g/L,0.12
same,change in Log cell number,[2]; 0.04 g/L,0
same,Final anaerobic vial OD,[2]; 0.04 g/L,0.01
same,change in Log cell number,[2]; 0.08 g/L,−4
same,Final anaerobic vial OD,[2]; 0.08 g/L,0.02
same,change in Log cell number,[2]; 0.1 g/L,Dead
same,Final anaerobic vial OD,[2]; 0.1 g/L,0.02
same,change in Log cell number,[2]; 0.5 g/L,Dead
same,Final anaerobic vial OD,[2]; 0.5 g/L,0.06
same,change in Log cell number,[2]; 1 g/L,Dead
same,Final anaerobic vial OD,[2]; 1 g/L,0.32
same,concentration that killed the cells on Day 0,[2]; anaerobic vials,≥ 0.1 g/L
same,partition coefficient,[3],approximately 10
COC(=O)c1ccc(O)cc1 [Methylparaben],growth (turbidity),[1]; 0.01 g/L,++
same,growth (turbidity),[1]; 0.05 g/L,++
same,growth (turbidity),[1]; 0.1 g/L,++
same,growth (turbidity),[1]; 0.5 g/L,+
same,growth (turbidity),[1]; 1 g/L,−
same,growth (turbidity),[1]; 2.5 g/L,−
same,change in Log cell number,[2]; 0.5 g/L,0
same,Final anaerobic vial OD,[2]; 0.5 g/L,0.09
same,change in Log cell number,[2]; 0.6 g/L,0
same,Final anaerobic vial OD,[2]; 0.6 g/L,0.05
same,change in Log cell number,[2]; 0.8 g/L,1
same,Final anaerobic vial OD,[2]; 0.8 g/L,0.05
same,change in Log cell number,[2]; 1 g/L,−1
same,Final anaerobic vial OD,[2]; 1 g/L,0.04
same,change in Log cell number,[2]; 2.5 g/L,−2
same,Final anaerobic vial OD,[2]; 2.5 g/L,0.01
same,effectiveness of the inhibitor in words,"[2]; judged by OD600 and cell killing, Table 3",showed this desirable property at the lowest efficacious concentrations
CN(C)C(=S)[S-].[Na+] [sodium dithiodimethyl carbamate],growth (turbidity),[1]; 0.1 g/L,++
same,growth (turbidity),[1]; 0.2 g/L,++
same,growth (turbidity),[1]; 0.3 g/L,−
same,growth (turbidity),[1]; 0.5 g/L,−
same,growth (turbidity),[1]; 0.8 g/L,−
same,growth (turbidity),[1]; 1 g/L,−
same,concentration that must be reached before inhibition of microbial growth ends,[1],< 0.1 g/L
O=S(=O)([O-])[O-].OC[P+](CO)(CO)CO.OC[P+](CO)(CO)CO [Bis(tetrakis(hydroxymethyl))phosphonium sulfate],growth (turbidity),[1]; 0.1 g/L,++
same,growth (turbidity),[1]; 0.2 g/L,++
same,growth (turbidity),[1]; 0.3 g/L,−
same,growth (turbidity),[1]; 0.4 g/L,−
CCOC=O [Ethyl formate],delay of maximum growth,[4]; 0.2% concentration,four
same,effect on the maximum population in words,[4]; 0.2% concentration,longer maintenance of the maximum population
same,mean nitrate+nitrite loss rate,[4]; 0.2% ethyl formate,190 ppm/day
same,consumption of electron acceptors nitrate+nitrite slower in the inhibited treatment,[4]; 0.2% ethyl formate vs no added ethyl formate,31%
same,decline of ethyl formate concentration,[5],10 fold
same,Growth response (turbidity),"[6]; 0.1 g/L, 24 hours of incubation",++
same,Growth response (turbidity),"[6]; 0.1 g/L, 48 hours of incubation",++
same,Growth response (turbidity),"[6]; 0.1 g/L, 120 hours of incubation",++
same,Growth response (turbidity),"[6]; 0.5 g/L, 24 hours of incubation",++
same,Growth response (turbidity),"[6]; 0.5 g/L, 48 hours of incubation",++
same,Growth response (turbidity),"[6]; 0.5 g/L, 120 hours of incubation",++
same,Growth response (turbidity),"[6]; 1 g/L, 24 hours of incubation",++
same,Growth response (turbidity),"[6]; 1 g/L, 48 hours of incubation",++
same,Growth response (turbidity),"[6]; 1 g/L, 120 hours of incubation",++
same,Growth response (turbidity),"[6]; 5 g/L, 24 hours of incubation",+
same,Growth response (turbidity),"[6]; 5 g/L, 48 hours of incubation",++
same,Growth response (turbidity),"[6]; 5 g/L, 120 hours of incubation",++
same,Growth response (turbidity),"[6]; 25 g/L, 24 hours of incubation",−
same,Growth response (turbidity),"[6]; 25 g/L, 48 hours of incubation",−
same,Growth response (turbidity),"[6]; 25 g/L, 120 hours of incubation",−
same,Growth response (turbidity),"[6]; 50 g/L, 24 hours of incubation",−
same,Growth response (turbidity),"[6]; 50 g/L, 48 hours of incubation",−
same,Growth response (turbidity),"[6]; 50 g/L, 120 hours of incubation",−
same,change in Log cell number,[2]; 5 g/L,−2
same,Final anaerobic vial OD,[2]; 5 g/L,0.02
same,change in Log cell number,[2]; 10 g/L,−6
same,Final anaerobic vial OD,[2]; 10 g/L,0.01
same,change in Log cell number,[2]; 25 g/L,−6
same,Final anaerobic vial OD,[2]; 25 g/L,0.005
same,change in Log cell number,[2]; 50 g/L,Dead
same,Final anaerobic vial OD,[2]; 50 g/L,0.05
same,change in Log cell number,[2]; 80 g/L,Dead
same,Final anaerobic vial OD,[2]; 80 g/L,0.06
OCCOc1ccccc1 [2-phenoxy-ethan-1-ol],growth (turbidity),[1]; 1 g/L,++
same,growth (turbidity),[1]; 2 g/L,++
same,growth (turbidity),[1]; 3 g/L,++
same,growth (turbidity),[1]; 4 g/L,−
Oc1ccccc1 [phenol],growth (turbidity),[1]; 0.01 g/L,++
same,growth (turbidity),[1]; 0.05 g/L,++
same,growth (turbidity),[1]; 0.1 g/L,++
same,growth (turbidity),[1]; 0.5 g/L,++
same,growth (turbidity),[1]; 1 g/L,++
same,growth (turbidity),[1]; 10 g/L,−
same,growth (turbidity),[1]; 50 g/L,−
